Experimental findings from patent US9260429B2, “Pyrido[3,4-B]indoles and methods of use” (Medivation Technologies, Inc., priority 2008, dated 2016) are described below.

In experiment [1] the target is T1, human recombinant histamine H2 receptor (Homo sapiens, UniProt P25021).
T1 construct: expressed in transfected cells; host or cells: CHO-K1 cells
As to the kind of experiment: Histamine H2 radioligand binding ([125I]Aminopotentidine). The conditions noted are these: 1 μM; inhibition of specific [125I]Aminopotentidine binding; read-out: Binding data (Percentage Inhibition) Histamine Binding (1 μM) H2. A digest of the protocol: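 Membranes of CHO-K1 cells expressing human H2 receptor incubated with 0.1 nM [125I]aminopotentidine, 120 min, 25 °C, 50 mM phosphate pH 7.4; nonspecific binding defined with 3 μM tiotidine.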

The target of experiment [2] is T2, human recombinant adrenergic α1D receptor (Homo sapiens, UniProt P25100).
T2 construct: expressed in transfected cells; host or cells: HEK-293 cells
T2 sequence (P25100 1-572): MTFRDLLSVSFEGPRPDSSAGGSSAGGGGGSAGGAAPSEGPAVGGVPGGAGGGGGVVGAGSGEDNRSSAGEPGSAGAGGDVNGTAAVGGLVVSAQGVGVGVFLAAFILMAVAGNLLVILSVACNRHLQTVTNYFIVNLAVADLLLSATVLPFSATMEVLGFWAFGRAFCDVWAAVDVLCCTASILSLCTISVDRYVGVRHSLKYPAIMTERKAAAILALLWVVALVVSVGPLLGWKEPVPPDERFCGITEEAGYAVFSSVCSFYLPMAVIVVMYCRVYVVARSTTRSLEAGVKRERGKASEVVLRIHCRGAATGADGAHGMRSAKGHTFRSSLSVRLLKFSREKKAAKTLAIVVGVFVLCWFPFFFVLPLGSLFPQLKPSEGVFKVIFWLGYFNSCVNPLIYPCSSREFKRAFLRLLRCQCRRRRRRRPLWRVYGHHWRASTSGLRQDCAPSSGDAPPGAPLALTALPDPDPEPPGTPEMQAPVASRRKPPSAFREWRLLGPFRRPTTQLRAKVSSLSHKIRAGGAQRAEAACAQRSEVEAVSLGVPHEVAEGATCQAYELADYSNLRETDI
As to the kind of experiment: Adrenergic α1D radioligand binding ([3H]Prozosin). The conditions noted are these: 1 h; read-out: Percent Inhibition of ligand binding Adrenergic (1 μM ligand conc.) α1D. How it is done: To evaluate in radioligand binding assays the activity of compounds of the invention, human recombinant adrenergic a1D receptor expressed in human embryonic kidney (HEK-293) cells (Kenny, B. A. et al. Br. J. Pharmacol. 115(6):981, 1995) in a 50 mM Tris-HCl buffer, pH 7.4, was used. Compounds of invention were incubated with 0.6 nM [^3H]Prozosin for 60 minutes at 25° C. Non-specific binding was estimated in the presence of 10 μM phentolamine. Receptor proteins were filtered and washed, the filters were then counted to determine [^3H]Prozosin specifically bound. Compounds were screened at 1 μM or lower, using 1% DMSO as vehicle. Biochemical assay results are presented as the percent inhibition of specific binding in Table 4. Adrenergic a2A

Experiment [3] concerns the target T3, human recombinant adrenergic α2B receptor (Homo sapiens, UniProt P18089).
T3 construct: expressed in transfected cells; host or cells: CHO-K1 cells
T3 sequence (P18089 1-450): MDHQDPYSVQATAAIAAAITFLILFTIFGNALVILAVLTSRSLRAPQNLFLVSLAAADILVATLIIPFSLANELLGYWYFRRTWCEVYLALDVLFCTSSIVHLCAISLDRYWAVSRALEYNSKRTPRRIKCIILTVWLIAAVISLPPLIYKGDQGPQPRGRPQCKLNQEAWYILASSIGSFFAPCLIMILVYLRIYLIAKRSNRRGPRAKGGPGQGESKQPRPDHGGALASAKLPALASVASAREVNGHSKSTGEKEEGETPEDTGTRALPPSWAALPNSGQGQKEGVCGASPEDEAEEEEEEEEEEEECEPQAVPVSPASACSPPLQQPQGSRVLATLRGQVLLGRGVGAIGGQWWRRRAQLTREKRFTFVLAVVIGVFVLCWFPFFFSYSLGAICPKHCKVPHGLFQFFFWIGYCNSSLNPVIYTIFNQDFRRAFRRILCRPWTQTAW
The experiment is described as follows: Adrenergic α2B radioligand binding ([3H]Rauwolscine). The conditions noted are these: 1 h; read-out: Percent Inhibition of ligand binding Adrenergic (1 μM ligand conc.) α2B. The procedure: To evaluate in radioligand binding assays the activity of compounds of the invention, human recombinant adrenergic α2B receptor expressed in Chinese hamster ovary (CHO-K1) cells (Uhlen S et al. Eur J. Pharmacol. 343(1):93, 1998) in a modified Tris-HCl buffer (50 mM Tris-HCl, pH 7.4, 12.5 mM MgCl2, 1 mM EDTA, 0.2% BSA) was used. Compounds of the invention were incubated with 2.5 nM [^3H]Rauwolscine for 60 minutes at 25° C. Non-specific binding was estimated in the presence of 10 μM Prozosin. Receptor proteins were filtered and washed, the filters were then counted to determine [^3H]Rauwolscine specifically bound. Compounds were screened at 1 μM or lower, using 1% DMSO as vehicle. Biochemical assay results are presented as the percent inhibition of specific binding in Table 4.

T1 sequence (P25021 whole entry): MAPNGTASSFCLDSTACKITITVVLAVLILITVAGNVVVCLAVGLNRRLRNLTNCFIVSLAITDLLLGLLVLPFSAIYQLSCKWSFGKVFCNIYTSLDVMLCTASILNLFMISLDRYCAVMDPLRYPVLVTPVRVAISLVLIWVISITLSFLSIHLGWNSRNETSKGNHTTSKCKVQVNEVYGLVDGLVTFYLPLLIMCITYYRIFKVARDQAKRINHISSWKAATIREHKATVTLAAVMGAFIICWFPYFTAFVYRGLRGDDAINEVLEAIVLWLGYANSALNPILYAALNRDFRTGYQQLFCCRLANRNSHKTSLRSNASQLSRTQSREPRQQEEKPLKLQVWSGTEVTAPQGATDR

As for `Cc1ccc2c(c1)c1c(n2CCc2ccc(C)nc2)CN(C)CC1` [Compound 1, 2,3,4,9-tetrahydro-2,6-dimethyl-9-(2-(6-methylpyridin-3-yl)ethyl)-1H-pyrido[3,4-b]indole], the inhibition (usually the relative decrease from the control value, in per cent) at 1 µM was determined as 5% in experiment [1], 65% in experiment [2] and 99% in experiment [3].
In the case of `Cc1ccc2c(c1)c1c(n2CCC2CCCCC2)CN(C)CC1` [Compound 2, 9-(2-cyclohexylethyl)-2,3,4,9-tetrahydro-2,6-dimethyl-1H-pyrido[3,4-b]indole], the values for the inhibition at 1 µM in experiment [1], in experiment [2] and in experiment [3] were 71%, 42% and 81%, respectively.
The corresponding values for `CN1CCc2c(n(CCc3ccc(F)cc3)c3ccc(Cl)cc23)C1` [Compound 3, 9-(4-fluorophenethyl)-6-chloro-2,3,4,9-tetrahydro-2-methyl-1H-pyrido[3,4-b]indole] are 51%, 77% and 108%.
On to `Cc1ccc2c(c1)c1c(n2CCc2ccc(C(F)(F)F)nc2)CN(C)CC1` [Compound 5, 9-(2-(6-(trifluoromethyl)pyridin-3-yl)ethyl)-2,3,4,9-tetrahydro-2,6-dimethyl-1H-pyrido[3,4-b]indole], for which the values for the inhibition at 1 µM in experiment [1], in experiment [2] and in experiment [3] were 36%, 64% and 83%, respectively.
The corresponding values for `CC(C)CCN(C)C(=O)Cn1c2c(c3cc(Cl)ccc31)CCN(C)C2` [Compound 14, 2-(6-chloro-1,2,3,4-tetrahydro-2-methylpyrido[3,4-b]indol-9-yl)-N-isopentyl-N-methylacetamide] are 12%, 33% and -16%.
In the case of `CN1CCc2c(n(CC(=O)Nc3ccc(F)cc3)c3ccc(Cl)cc23)C1` [Compound 15, 2-(6-chloro-1,2,3,4-tetrahydro-2-methylpyrido[3,4-b]indol-9-yl)-N-(4-fluorophenyl)acetamide], the figures for the inhibition at 1 µM in experiment [1], in experiment [2] and in experiment [3] were -3%, 5% and 8%, respectively.
The corresponding values for `CN1CCc2c(n(CC(=O)N(C)C)c3ccc(Cl)cc23)C1` [Compound 16, 2-(6-chloro-1,2,3,4-tetrahydro-2-methylpyrido[3,4-b]indol-9-yl)-N,N-dimethylacetamide] are 1%, 2% and -7%.
Take `CN1CCc2c(n(CC(=O)NC3CCCCC3)c3ccc(Cl)cc23)C1` [Compound 17, 2-(6-chloro-1,2,3,4-tetrahydro-2-methylpyvrido[3,4-b]indol-9-yl)-N-cyclohexylacetamide]: the figures for the inhibition at 1 µM in experiment [1], in experiment [2] and in experiment [3] were -6%, 18% and 14%, respectively.
The corresponding values for `CN1CCc2c(n(CC(=O)N(C)C3CCCCC3)c3ccc(Cl)cc23)C1` [Compound 18, 2-(6-chloro-1,2,3,4-tetrahydro-2-methylpyrido[3,4-b]indol-9-yl)-N-cyclohexyl-N-methylacetamide] are 7%, 21% and 19%.
The corresponding values for `COC(=O)Cn1c2c(c3cc(C)ccc31)CCN(C)C2` [Compound 21, methyl 2-(1,2,3,4-tetrahydro-2,6-dimethylpyrido[3,4-b]indol-9-yl)acetate] are 2%, -7% and 11%.
With `CN1CCc2c(n(CCCc3ccccc3)c3ccc(Cl)cc23)C1` [Compound 29, 6-chloro-2,3,4,9-tetrahydro-2-methyl-9-(3-phenylpropyl)-1H-pyrido[3,4-b]indole], the inhibition at 1 µM in experiment [1] is 60%; in experiment [2], 84%; in experiment [3] it was 79%.
In the case of `CN1CCc2c(n(CCN3CCCCC3)c3ccc(Cl)cc23)C1` [Compound 34, 6-chloro-2,3,4,9-tetrahydro-2-methyl-9-(2-(piperidin-1-yl)ethyl)-1H-pyrido[3,4-b]indole], the inhibition at 1 µM amounted to 20% in experiment [1], 56% in experiment [2] and 38% in experiment [3].
As for `CN1CCc2c(n(CCC3CCCC3)c3ccc(Cl)cc23)C1` [Compound 35, 6-chloro-9-(2-cyclopentylethyl)-2,3,4,9-tetrahydro-2-methyl-1H-pyrido[3,4-b]indole], the results for the inhibition at 1 µM in experiment [1], in experiment [2] and in experiment [3] were 67%, 60% and 65%, respectively.
The corresponding values for `CC1CCN(C(=O)Cn2c3c(c4cc(Cl)ccc42)CCN(C)C3)CC1` [Compound 38, 2-(6-chloro-1,2,3,4-tetrahydro-2-methylpyrido[3,4-b]indol-9-yl)-1-(4-methylpiperidin-1-vyl)ethanone] are 3%, 25% and 15%.
The corresponding values for `CN1CCc2c(n(CC(=O)N3CCCC3)c3ccc(Cl)cc23)C1` [Compound 40, 2-(6-chloro-1,2,3,4-tetrahydro-2-methylpyrido[3,4-b]indol-9-yl)-1-(pyrrolidin-1-yl)ethanone] are 4%, 3% and 18%.
For `Cc1ccc2c(c1)c1c(n2CCC(=O)N2CCCCC2)CN(C)CC1` [Compound 43, 3-(1,2,3,4-tetrahydro-2,6-dimethylpyrido[3,4-b]indol-9-yl)-1-(piperidin-1-yl)propan-1-one], the figures for the inhibition at 1 µM in experiment [1], in experiment [2] and in experiment [3] were 6%, 58% and -14%, respectively.
As for `CN1CCc2c(n(CCCC(=O)N3CCCCC3)c3ccc(Cl)cc23)C1` [Compound 44, 4-(6-chloro-1,2,3,4-tetrahydro-2-methylpyrido[3,4-b]indol-9-yl)-1-(piperidin-1-yl)butan-1-one], the inhibition at 1 µM in experiment [1] was found to be 9%; in experiment [2] it was 61%; in experiment [3], 20%.
The corresponding values for `CN1CCc2c(n(CC(=O)O)c3ccc(Cl)cc23)C1` [Compound 52, 2-(6-chloro-1,2,3,4-tetrahydro-2-methylpyrido[3,4-b]indol-9-yl)acetic acid] are -5%, -11% and 9%.
The corresponding values for `Cc1ccc2c(c1)c1c(n2CC(=O)O)CN(C)CC1` [Compound 53, 2-(1,2,3,4-tetrahydro-2,6-dimethylpyrido[3,4-b]indol-9-yl)acetic acid] are 0%, 6% and 6%.
With `COC(=O)Cn1c2c(c3cc(Cl)ccc31)CCN(C)C2` [Compound 54, methyl 2-(6-chloro-2-methyl-3,4-dihydro-1H-pyrido[3,4-b]indol-9(2H)-yl)acetate], the inhibition at 1 µM was found to be 21% in experiment [1], 11% in experiment [2] and 18% in experiment [3].
